From US20180200257A1, “METHODS FOR THE TREATMENT OF INFLAMMATORY DISORDERS” (Galapagos NV, priority 2015, published 2018)

Tested on: subjects with moderately to severely active RA who have an inadequate response to methotrexate (MTX)
Assay: Study 1 (add-on to MTX) - serum CRP values
Format: in vivo, human
Procedure: Double-blind, placebo-controlled add on study in subjects with moderately to severely active RA who have an inadequate response to methotrexate (MTX) (oral or parenteral).
595 subjects randomized to one of 6 dose regimens of Compound 1 (dosed as [Compound 1:HCl:3H2O]) (3 dose levels administered either once or twice daily) or placebo on top of each subject's stable dose of MTX.
Compound 1 (dosed as [Compound 1:HCl:3H2O]) is dosed for twelve weeks once daily (q.d.) (50 mg, 100 mg or 200 mg) or twice daily (b.i.d.) (25 mg, 50 mg or 100 mg); or placebo.
At Week 12, the subjects on placebo who have not achieved 20% improvement in swollen joint count (SJC66) and tender joint count (TJC68) are re-randomized automatically to receive Compound 1 (dosed as a [Compound 1:HCl:3H2O]) either at 100 mg q.d. or 50 mg b.i.d. doses in a blinded fashion; subjects on 50 mg q.d. who have not achieved 20% improvement in SJC66 and TJC68 will be assigned to 100 mg q.d. and subjects on 25 mg b.i.d. that have not achieved a 20% improvement in SJC66 and TJC68 will be assigned to 50 mg b.i.d. Subjects who switch treatment at week 12 are handled as if they discontinued at week 12 for the purpose of statistical analysis, whereas subjects in the other groups will maintain their randomized treatment until Week 24.
CRP determination is available at Quest Diagnostics, Clinical Trials, Quest House, 125-135 Staines Road, Hounslow, Middlesex, TW3 3JB, United Kingdom under Catalogue n#86140.
The determination of CRP is made using Immunoturbidimetric assay for the in vitro quantitative determination of CRP in human serum and plasma on Roche/Hitachi cobas c systems, wherein human CRP agglutinates with latex particles coated with monoclonal anti-CRP antibodies. The aggregates are determined turbidimetrically (Eda et al., 1998; Price et al., 1987).
Human serum and plasma samples CRP determination was done on a Roche/Hitachi Cobas c 301 c 501/502 system which automatically calculate the analyte concentration of each sample. Samples containing precipitates are centrifuged before performing the assay.
The machine parameters are listed in Table XCI and Table XCII below, and the results at 12 weeks v using either LOCF are shown in Table XCIII and below. The Hommel-corrected p-value for the pairwise comparisons of each group with placebo is shown.
The number of subjects (N) provided in each groups corresponds to the number of subjects starting the study in each group, and the CRP data reported below corresponds to the responding subjects continuing for the entire 24 weeks on their initial treatment course.

SMILES: O=C(Nc1nc2cccc(-c3ccc(CN4CCS(=O)(=O)CC4)cc3)n2n1)C1CC1 [Compound 1, cyclopropanecarboxylic acid {5-[4-(1,1-dioxo-thiomorpholin-4-ylmethyl)-phenyl]-[1,2,4]triazolo[1,5-a]pyridin-2-yl}-amide]
- CRP mean CFB mg/L (LOCF) (50 mg q.d., week 1, 12 weeks results): -7.95 mg/L
- CRP mean CFB mg/L (LOCF) (50 mg q.d., week 1, 24 weeks results): -7.95 mg/L
- CRP mean CFB mg/L (LOCF) (50 mg q.d., week 2, 12 weeks results): -8.23 mg/L
- CRP mean CFB mg/L (LOCF) (50 mg q.d., week 2, 24 weeks results): -8.23 mg/L
- CRP mean CFB mg/L (LOCF) (50 mg q.d., week 4, 12 weeks results): -10.18 mg/L
- CRP mean CFB mg/L (LOCF) (50 mg q.d., week 4, 24 weeks results): -10.18 mg/L
- CRP mean CFB mg/L (LOCF) (50 mg q.d., week 12, 12 weeks results): -13.15 mg/L
- CRP mean CFB mg/L (LOCF) (50 mg q.d., week 12, 24 weeks results): -13.15 mg/L
- CRP mean CFB mg/L (LOCF) (50 mg q.d., week 16, 24 weeks results): -13.55 mg/L
- CRP mean CFB mg/L (LOCF) (50 mg q.d., week 20, 24 weeks results): -13.12 mg/L
- CRP mean CFB mg/L (LOCF) (50 mg q.d., week 24, 24 weeks results): -15.22 mg/L
- CRP mean CFB mg/L (LOCF) (50 mg q.d., week 8, 12 weeks results): -12.02 mg/L
- CRP mean CFB mg/L (LOCF) (50 mg q.d., week 8, 24 weeks results): -12.02 mg/L
- CRP mean CFB mg/L (LOCF) (100 mg q.d., week 1, 12 weeks results): -11.02 mg/L
- CRP mean CFB mg/L (LOCF) (100 mg q.d., week 1, 24 weeks results): -11.02 mg/L
- CRP mean CFB mg/L (LOCF) (100 mg q.d., week 2, 12 weeks results): -12.94 mg/L
- CRP mean CFB mg/L (LOCF) (100 mg q.d., week 2, 24 weeks results): -12.94 mg/L
- CRP mean CFB mg/L (LOCF) (100 mg q.d., week 4, 12 weeks results): -13.18 mg/L
- CRP mean CFB mg/L (LOCF) (100 mg q.d., week 4, 24 weeks results): -13.18 mg/L
- CRP mean CFB mg/L (LOCF) (100 mg q.d., week 8, 24 weeks results): -12.48 mg/L
- CRP mean CFB mg/L (LOCF) (100 mg q.d., week 12, 12 weeks results): -13.57 mg/L
- CRP mean CFB mg/L (LOCF) (100 mg q.d., week 12, 24 weeks results): -13.57 mg/L
- CRP mean CFB mg/L (LOCF) (100 mg q.d., week 16, 24 weeks results): -11.66 mg/L
- CRP mean CFB mg/L (LOCF) (100 mg q.d., week 20, 24 weeks results): -14.50 mg/L
- CRP mean CFB mg/L (LOCF) (100 mg q.d., week 24, 24 weeks results): -14.89 mg/L
- CRP mean CFB mg/L (LOCF) (100 mg q.d., week 8, 12 weeks results): -12.48 mg/L
- CRP mean CFB mg/L (LOCF) (200 mg q.d., week 1, 12 weeks results): -17.06 mg/L
- CRP mean CFB mg/L (LOCF) (200 mg q.d., week 1, 24 weeks results): -17.06 mg/L
- CRP mean CFB mg/L (LOCF) (200 mg q.d., week 2, 12 weeks results): -17.51 mg/L
- CRP mean CFB mg/L (LOCF) (200 mg q.d., week 2, 24 weeks results): -17.51 mg/L
- CRP mean CFB mg/L (LOCF) (200 mg q.d., week 4, 12 weeks results): -17.94 mg/L
- CRP mean CFB mg/L (LOCF) (200 mg q.d., week 4, 24 weeks results): -17.94 mg/L
- CRP mean CFB mg/L (LOCF) (200 mg q.d., week 8, 24 weeks results): -17.22 mg/L
- CRP mean CFB mg/L (LOCF) (200 mg q.d., week 12, 12 weeks results): -17.24 mg/L
- CRP mean CFB mg/L (LOCF) (200 mg q.d., week 12, 24 weeks results): -17.24 mg/L
- CRP mean CFB mg/L (LOCF) (200 mg q.d., week 16, 24 weeks results): -20.38 mg/L
- CRP mean CFB mg/L (LOCF) (200 mg q.d., week 20, 24 weeks results): -17.89 mg/L
- CRP mean CFB mg/L (LOCF) (200 mg q.d., week 24, 24 weeks results): -15.57 mg/L
- CRP mean CFB mg/L (LOCF) (200 mg q.d., week 8, 12 weeks results): -17.22 mg/L
- CRP mean CFB mg/L (LOCF) (2 × 25 mg b.i.d., week 2, 12 weeks results): -10.06 mg/L
- CRP mean CFB mg/L (LOCF) (2 × 25 mg b.i.d., week 2, 24 weeks results): -10.06 mg/L
- CRP mean CFB mg/L (LOCF) (2 × 25 mg b.i.d., week 4, 12 weeks results): -7.72 mg/L
- CRP mean CFB mg/L (LOCF) (2 × 25 mg b.i.d., week 4, 24 weeks results): -7.72 mg/L
- CRP mean CFB mg/L (LOCF) (2 × 25 mg b.i.d., week 8, 12 weeks results): -10.94 mg/L
- CRP mean CFB mg/L (LOCF) (2 × 25 mg b.i.d., week 8, 24 weeks results): -10.94 mg/L
- CRP mean CFB mg/L (LOCF) (2 × 25 mg b.i.d., week 12, 12 weeks results): -10.26 mg/L
- CRP mean CFB mg/L (LOCF) (2 × 25 mg b.i.d., week 12, 24 weeks results): -10.26 mg/L
- CRP mean CFB mg/L (LOCF) (2 × 25 mg b.i.d., week 16, 24 weeks results): -12.55 mg/L
- CRP mean CFB mg/L (LOCF) (2 × 25 mg b.i.d., week 20, 24 weeks results): -12.20 mg/L
- CRP mean CFB mg/L (LOCF) (2 × 25 mg b.i.d., week 24, 24 weeks results): -11.68 mg/L
- CRP mean CFB mg/L (LOCF) (2 × 25 mg b.i.d., Week 1, 12 weeks results): -8.47 mg/L
- CRP mean CFB mg/L (LOCF) (2 × 25 mg b.i.d., Week 1, 24 weeks results): -8.47 mg/L
- CRP mean CFB mg/L (LOCF) (2 × 50 mg b.i.d., week 2, 12 weeks results): -11.03 mg/L
- CRP mean CFB mg/L (LOCF) (2 × 50 mg b.i.d., week 2, 24 weeks results): -11.03 mg/L
- CRP mean CFB mg/L (LOCF) (2 × 50 mg b.i.d., week 4, 12 weeks results): -13.28 mg/L
- CRP mean CFB mg/L (LOCF) (2 × 50 mg b.i.d., week 4, 24 weeks results): -13.28 mg/L
- CRP mean CFB mg/L (LOCF) (2 × 50 mg b.i.d., week 8, 12 weeks results): -13.25 mg/L
- CRP mean CFB mg/L (LOCF) (2 × 50 mg b.i.d., week 8, 24 weeks results): -13.25 mg/L
- CRP mean CFB mg/L (LOCF) (2 × 50 mg b.i.d., week 12, 12 weeks results): -12.97 mg/L
- CRP mean CFB mg/L (LOCF) (2 × 50 mg b.i.d., week 12, 24 weeks results): -12.97 mg/L
- CRP mean CFB mg/L (LOCF) (2 × 50 mg b.i.d., week 16, 24 weeks results): -12.57 mg/L
- CRP mean CFB mg/L (LOCF) (2 × 50 mg b.i.d., week 20, 24 weeks results): -13.16 mg/L
- CRP mean CFB mg/L (LOCF) (2 × 50 mg b.i.d., week 24, 24 weeks results): -11.96 mg/L
- CRP mean CFB mg/L (LOCF) (2 × 50 mg b.i.d., Week 1, 12 weeks results): -10.08 mg/L
- CRP mean CFB mg/L (LOCF) (2 × 50 mg b.i.d., Week 1, 24 weeks results): -10.08 mg/L
- CRP mean CFB mg/L (LOCF) (2 × 100 mg b.i.d., week 2, 12 weeks results): -19.69 mg/L
- CRP mean CFB mg/L (LOCF) (2 × 100 mg b.i.d., week 2, 24 weeks results): -19.69 mg/L
- CRP mean CFB mg/L (LOCF) (2 × 100 mg b.i.d., week 4, 12 weeks results): -20.64 mg/L
- CRP mean CFB mg/L (LOCF) (2 × 100 mg b.i.d., week 4, 24 weeks results): -20.64 mg/L
- CRP mean CFB mg/L (LOCF) (2 × 100 mg b.i.d., week 8, 12 weeks results): -21.32 mg/L
- CRP mean CFB mg/L (LOCF) (2 × 100 mg b.i.d., week 8, 24 weeks results): -21.32 mg/L
- CRP mean CFB mg/L (LOCF) (2 × 100 mg b.i.d., week 12, 12 weeks results): -20.54 mg/L
- CRP mean CFB mg/L (LOCF) (2 × 100 mg b.i.d., week 12, 24 weeks results): -20.54 mg/L
- CRP mean CFB mg/L (LOCF) (2 × 100 mg b.i.d., week 16, 24 weeks results): -21.34 mg/L
- CRP mean CFB mg/L (LOCF) (2 × 100 mg b.i.d., week 20, 24 weeks results): -20.80 mg/L
- CRP mean CFB mg/L (LOCF) (2 × 100 mg b.i.d., week 24, 24 weeks results): -20.82 mg/L
- CRP mean CFB mg/L (LOCF) (2 × 100 mg b.i.d., Week 1, 12 weeks results): -17.39 mg/L
- CRP mean CFB mg/L (LOCF) (2 × 100 mg b.i.d., Week 1, 24 weeks results): -17.39 mg/L
